Measurements from the Kinase Knowledgebase extract (Sharma et al. 2016).

The compounds below were run against MAPK14 (human) (UniProt Q16539) (assay: Inhibition of MAPK14 Kinase Activity).
Sequence of MAPK14 (human) (Q16539 whole entry, looked up): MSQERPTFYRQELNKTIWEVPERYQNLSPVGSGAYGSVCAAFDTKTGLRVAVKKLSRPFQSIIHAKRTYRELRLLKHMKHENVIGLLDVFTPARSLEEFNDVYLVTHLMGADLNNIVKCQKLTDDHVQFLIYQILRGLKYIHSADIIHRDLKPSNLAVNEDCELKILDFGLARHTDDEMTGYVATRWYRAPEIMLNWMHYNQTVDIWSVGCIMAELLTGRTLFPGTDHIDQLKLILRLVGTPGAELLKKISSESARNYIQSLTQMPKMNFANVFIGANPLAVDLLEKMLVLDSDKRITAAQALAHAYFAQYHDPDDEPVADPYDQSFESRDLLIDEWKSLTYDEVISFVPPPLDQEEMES

IC50, < 1000 nM:
CS(=O)(=O)N1CCC(n2c(=O)[nH]c3cc(Nc4ccccc4F)ccc32)C1 (configuration not stated)
Cc1ccccc1Nc1cc2[nH]c(=O)n(CC3CCCCC3)c2cc1N(C)CCCN(C)C
CN1CCC(n2c(=O)[nH]c3cc(Nc4ccc(F)cc4)ccc32)C1 (configuration not stated)
CNCC(C)(C)n1c(=O)[nH]c2cc(Nc3ccccc3)ccc21
O=c1[nH]c2cc(Nc3ccccc3)c(N3CCNCC3)cc2n1CC1CCCCC1
CC(C)(C)n1c(=O)[nH]c2cc(Nc3ccccc3)ccc21
CNCC(C)(C)n1c(=O)[nH]c2cc(Nc3ccccc3F)ccc21
Cc1ccccc1Nc1ccc2c(c1)[nH]c(=O)n2CC1CCCCC1
CCS(=O)(=O)N1CCC(n2c(=O)[nH]c3cc(Nc4ccccc4F)ccc32)C1 (configuration not stated)
COc1cccc(Cn2c(=O)[nH]c3cc(Nc4ccccc4)ccc32)c1
CN1CCC(n2c(=O)[nH]c3cc(Nc4ccccc4F)ccc32)C1 (configuration not stated)
O=c1[nH]c2cc(Nc3ccccc3)ccc2n1CC1CCCCC1
Cc1ccccc1Nc1ccc2c(c1)[nH]c(=O)n2C1CCNC1 (configuration not stated)
CN1CCC(n2c(=O)[nH]c3cc(Nc4ccc(F)cc4F)ccc32)C1 (configuration not stated)
O=c1[nH]c2cc(Nc3ccccc3)ccc2n1C1CCNC1 (configuration not stated)
CC(C)(CN)n1c(=O)[nH]c2cc(Nc3ccccc3)ccc21
Cc1ccccc1Nc1ccc2c(c1)[nH]c(=O)n2C(C)(C)CN(C)C
CN1CCN(c2cc3c(cc2Nc2ccccc2F)[nH]c(=O)n3C2CCCC2)CC1
O=c1[nH]c2cc(Nc3ccccc3)ccc2n1-c1ccccc1
O=c1[nH]c2cc(Nc3ccc(F)cc3F)ccc2n1CC1CCCCC1
O=c1[nH]c2cc(Nc3ccccc3)ccc2n1CC1CCCO1 (configuration not stated)
O=c1[nH]c2cc(Nc3ccccc3)ccc2n1CCc1ccccc1
O=c1[nH]c2cc(Nc3ccccc3F)ccc2n1C1CCNC1 (configuration not stated)
CN(C)CC(C)(C)n1c(=O)[nH]c2cc(Nc3ccccc3)ccc21
CN(C)CC(C)(C)n1c(=O)[nH]c2cc(Nc3ccccc3F)ccc21
Cc1ccccc1Nc1ccc2c(c1)[nH]c(=O)n2C1CCN(C)C1 (configuration not stated)
CCS(=O)(=O)N1CCC(n2c(=O)[nH]c3cc(Nc4ccccc4)ccc32)C1 (configuration not stated)
Cc1ccccc1Nc1ccc2c(c1)[nH]c(=O)n2C1CCN(S(C)(=O)=O)C1 (configuration not stated)
Cc1ccccc1Nc1ccc2c(c1)[nH]c(=O)n2C(C)(C)CN
Cc1ccc(Nc2ccc3c(c2)[nH]c(=O)n3CC2CCCCC2)cc1N
Cc1ccccc1Nc1cc2[nH]c(=O)n(CC3CCCCC3)c2cc1N(C)CCN(C)C
O=c1[nH]c2cc(Nc3ccccc3)ccc2n1C1CCc2ccccc21 (configuration not stated)
CN1CCC(n2c(=O)[nH]c3cc(Nc4ccccc4)ccc32)C1 (configuration not stated)
O=c1[nH]c2cc(Nc3ccccc3)ccc2n1Cc1c(F)cccc1F
O=c1[nH]c2cc(Nc3ccccc3)ccc2n1Cc1cccnc1
CC(C)(CN)n1c(=O)[nH]c2cc(Nc3ccc(F)cc3)ccc21
CS(=O)(=O)N1CCC(n2c(=O)[nH]c3cc(Nc4ccc(F)cc4)ccc32)C1 (configuration not stated)
CNCC(C)(C)n1c(=O)[nH]c2cc(Nc3ccccc3C)ccc21
CC(C)(CN)n1c(=O)[nH]c2cc(Nc3ccc(F)cc3F)ccc21
O=c1[nH]c2cc(Nc3ccc(F)c(F)c3)ccc2n1CC1CCCCC1
C=C/C(=C\C=C(/C)F)Nc1ccc2c(c1)[nH]c(=O)n2C(C)(C)CN(C)C
O=c1[nH]c2cc(Nc3ccccc3)ccc2n1C1CCCC1
O=c1[nH]c2cc(Nc3ccc(F)cc3)ccc2n1CC1CCCCC1
CS(=O)(=O)N1CCC(n2c(=O)[nH]c3cc(Nc4ccc(F)cc4F)ccc32)C1 (configuration not stated)
O=c1[nH]c2cc(Nc3ccccc3F)c(N3CCNCC3)cc2n1CC1CCCCC1
O=c1[nH]c2cc(Nc3ccccc3)ccc2n1Cc1ccccc1
CCS(=O)(=O)N1CCC(n2c(=O)[nH]c3cc(Nc4ccccc4C)ccc32)C1 (configuration not stated)
CNCC(C)(C)n1c(=O)[nH]c2cc(Nc3ccc(F)cc3)ccc21
CCS(=O)(=O)N1CCC(n2c(=O)[nH]c3cc(Nc4ccc(F)cc4F)ccc32)C1 (configuration not stated)
CN(C)CC(C)(C)n1c(=O)[nH]c2cc(Nc3ccc(F)cc3F)ccc21
CC(c1ccccc1)n1c(=O)[nH]c2cc(Nc3ccccc3)ccc21 (configuration not stated)
COc1ccccc1Nc1ccc2c(c1)[nH]c(=O)n2CC1CCCCC1
O=c1[nH]c2cc(Nc3ccc(F)cc3F)ccc2n1C1CCNC1 (configuration not stated)
CCS(=O)(=O)N1CCC(n2c(=O)[nH]c3cc(Nc4ccc(F)cc4)ccc32)C1 (configuration not stated)
Cc1ccccc1Nc1cc2[nH]c(=O)n(CC3CCCCC3)c2cc1N1CCN(C)CC1
CC(C)(CN)n1c(=O)[nH]c2cc(Nc3ccccc3F)ccc21
O=c1[nH]c2cc(Nc3cccc(F)c3)ccc2n1CC1CCCCC1
O=c1[nH]c2cc(Nc3ccccc3F)ccc2n1CC1CCCCC1
CC(C1CCCCC1)n1c(=O)[nH]c2cc(Nc3ccccc3)ccc21 (configuration not stated)
CN1CCN(c2cc3c(cc2Nc2ccccc2)[nH]c(=O)n3CC2CCCCC2)CC1
O=c1[nH]c2cc(Nc3ccc(F)cc3)ccc2n1C1CCNC1 (configuration not stated)
O=c1[nH]c2cc(Nc3ccccc3)ccc2n1C1CCCc2ccccc21 (configuration not stated)
